Measured values from ChEMBL document CHEMBL3507680, “University of Dundee, Gates Library screen for HepG2 cell viability”.

Test: Human HepG2 cell viability assay in 384 well format
Assay type: toxicity, cell-based
Set-up: dose 125 nL, time 70.5 hour; concentration not given beside the values
Conditions: HepG2 cells, read-out: Inhibition

Row | SMILES | cytotoxicity at 70.5 h [%]
1 | CCn1ncc2c1CCCC2NCC1=Cc2ccccc2OC1 (stereo not given) | -12.8
2 | Cc1cnn(CC(C)NCc2ccc(-n3cccn3)cc2)c1 (stereo not given) | 30.2
3 | COc1ncccc1C(=O)N1CCN(C(=O)Cc2ccccn2)CC1 | 6.6
4 | Cc1ccc(CC(=O)NCCCNS(C)(=O)=O)cc1 | 1.07
5 | Cc1nc(CN2CCN(C(=O)c3ccn(C)c(=O)c3)CC2)cs1 | 7.44
6 | CC(C)(C)NC(=O)C1CSCN1S(=O)(=O)c1ccc(F)cc1 (stereo not given) | -1.49
7 | Cn1ccc(C(=O)N2CCN(CCc3ccccc3)CC2)cc1=O | -1.11
8 | O=C(c1ccc(O)c(Cl)c1)N1CCC(c2n[nH]c(C3CC3)n2)CC1 | 36.5
9 | CC(NC(=O)NCCCNS(C)(=O)=O)c1ccncc1 (stereo not given) | 1.41
10 | CCn1cc(NC(=O)C2CCN(Cc3noc(C(C)C)n3)CC2)cn1 | 0.996
11 | COCCCNC(=O)NCc1ccc(C)cc1 | 8.59
12 | CCc1nc(CC(=O)N2CCN(c3cnccn3)CC2)cs1 | -0.0277
13 | CCCc1nc(CN2CCN(Cc3noc(CCC)n3)CC2)no1 | 11.4
14 | O=C(CCNc1ncccn1)N1CCCC(n2ccnc2)C1 (stereo not given) | -2.71
15 | CN(C)S(=O)(=O)c1ccc(OCCNCCn2cccn2)cc1 | 33.7
16 | Cc1cc(C)n(C2CN(CC(=O)NC3CCOCC3)C2)n1 | -0.827
17 | CCCc1n[nH]c(C2CN(CCCS(C)(=O)=O)CCO2)n1 (stereo not given) | -4.54
18 | COc1c(CNCc2ccnc(N3CCCC3)c2)c(C)nn1C | -0.752
19 | O=C(CCc1cscn1)N1CCCC(n2ccnc2)C1 (stereo not given) | 2.29
20 | Cc1cccc(-c2nc(CN(Cc3cccs3)CC3CCCO3)no2)c1 (stereo not given) | -1.72

Row | SMILES | cytotoxicity at 70.5 h [%]
21 | Cc1cnn(CC(C)NCc2csc(-c3ccsc3)n2)c1 (stereo not given) | -0.817
22 | COc1cc(C(=O)N2CCC(c3n[nH]c(C4CC4)n3)CC2)ccc1C | 36.5
23 | CC1CCN(S(=O)(=O)NCc2ccccc2Cn2cncn2)CC1 | -2.92
24 | CC(C(=O)N1CCN(c2ccccc2Cl)CC1)n1cncn1 (stereo not given) | 10.3
25 | COc1cc(/C=C/c2ncc(C(=O)O)s2)cc(Cl)c1O | 7.03
26 | CN1CCCc2cc(CNC(=O)c3ccncc3)ccc21 | 33.4
27 | CC(C)Sc1ncccc1C(=O)NCc1ccc(CS(C)(=O)=O)cc1 | 6.05
28 | CN1N=C(C(=O)NCc2ccc3c(c2)CCCN3C)CCC1=O | 5.34
29 | Cc1cc(C)c(CNC(=O)N2CCCC2c2ccccc2)c(=O)[nH]1 (stereo not given) | 2.02
30 | Cc1cc(C)c(CNC(=O)N2CCCC2c2cccn2C)c(=O)[nH]1 (stereo not given) | 5.45
31 | O=C(NCCNc1cnccn1)N1CCN(Cc2cccnc2)CC1 | 33.3
32 | O=S(=O)(NCc1ccccc1Cn1cncn1)C1CCCC1 | 2.05
33 | CC(=O)N1CCN(C(=O)C(C)n2cncn2)CC1 (stereo not given) | 5.31
34 | Cc1cnn(C2CCCN(C(=O)c3ccnc(-n4ccnc4)c3)C2)c1 (stereo not given) | -0.996
35 | CCOCCC(=O)N1CCCN(Cc2csc(CC)n2)CC1 | -0.403
36 | Cc1ccc(NC2CCN(C(=O)COCC(F)(F)F)CC2)nn1 | 10.1
37 | Cc1n[nH]c(C2CN(C(=O)Cn3ccccc3=O)CCO2)n1 (stereo not given) | 7.95
38 | CCCc1nc(CN2CCCC(Cn3cncn3)C2)no1 (stereo not given) | 3.03
39 | COC(CNC(=O)N1CCC(n2cncn2)CC1)c1ccccc1 (stereo not given) | 6.02
40 | Cc1ccc(N2CCCC(NCC(=O)NCC3CC3)C2)nn1 (stereo not given) | 1.19

Row | SMILES | cytotoxicity at 70.5 h [%]
41 | CCc1nc(CN2CCCN(C(=O)CCc3ccco3)CC2)cs1 | 27.3
42 | O=C(c1cnc(C2CC2)s1)N1CCCCC1Cn1cccn1 (stereo not given) | 0.664
43 | CCc1cc(C)c(C(=O)N2CCCC2CC(=O)c2cnn(C)c2)o1 (stereo not given) | 6.36
44 | CCc1nc(CN(C)C2CCN(CCn3cc(C#N)cn3)C2)no1 (stereo not given) | 37.1
45 | c1csc(-c2nc(CN3CCOC(Cn4cncn4)C3)co2)c1 (stereo not given) | -0.51
46 | O=C(c1cnc(-c2cccs2)s1)N1CCCN2CCCC2C1 (stereo not given) | -5.78
47 | Cc1ccc(N2CCCC(NCc3cscn3)C2)nn1 (stereo not given) | -11.8
48 | CCOc1nnc(CNC2CCCN(c3ccc(C)nn3)C2)s1 (stereo not given) | -1.05
49 | Cc1ccc(NC2CCN(C(=O)Cc3csc(C)n3)CC2)nn1 | -9.75
50 | COc1ccccc1C(=O)N1CCCC1Cn1cc(C)cn1 (stereo not given) | -14.4
51 | CCCc1nc(CN2CCOC(CNc3cccnn3)C2)cs1 (stereo not given) | -11.7
52 | CC(O)CN1CCN(C(=O)c2ccc(Cn3cccn3)cc2)CC1 (stereo not given) | -7.08
53 | CCc1nc(CN(C)C2CCN(Cc3ccc(C#N)cc3F)C2)no1 (stereo not given) | 14.4
54 | Cc1nn(C)c(Cl)c1C1CCCN1C(=O)c1nccnc1N (stereo not given) | -11.6
55 | O=C(NCCc1cccc(F)c1)NCC(O)c1cccc(F)c1 (stereo not given) | -5.32
56 | COCc1ccccc1CNCc1c(C)nn(C)c1N(C)C | -0.163
57 | CN(C)c1ccc(CCNC(=O)NCc2ccc(N(C)C)nc2)cc1 | -3.36
58 | CCOc1cccc(CNC(=O)NCC(O)c2cccc(F)c2)c1 (stereo not given) | 10.6
59 | O=C(c1cccc2c1OCO2)N1CCCC(n2cccn2)C1 (stereo not given) | -9.01
60 | Cn1ncc2c1CCCC2NCc1cccc(F)c1 (stereo not given) | -14.3
